# Assay results taken from patent publication US20230190689A1, “METHODS AND COMPOSITIONS FOR INDUCING BROWN ADIPOGENESIS” (ENERGESIS PHARMACEUTICALS, INC., priority 2020, published 2023).
# Counter-ions that a name gives are not always drawn.
# Columns and labels:
# [1] = tested on: CD34+ brown adipocyte progenitor cells; assay: Multiplexed TaqMan real-time PCR of UCP1 and PPARγ2 mRNA (normalized to cyclophilin A) to quantify differentiation of CD34+ cells into brown adipocytes; type: cell-based, human; conditions: in vitro; first screen at 10 μM, actives retested at 1 nM to 50 μM
# Text: A robust method, previously disclosed, was used for detection of CD34+ cell differentiation into brown adipocytes by simultaneously quantifying mRNA species corresponding to the brown adipocyte marker UCP1, the adipocyte marker PPARγ2, and the “housekeeping” gene cyclophilin A which was used as the internal control.
# This method permits analysis of a large number of samples to identify agents that enhance the differentiation of CD34+ cells into brown adipocytes. When differentiated into brown adipocytes, CD34+ cells express much higher levels of UCP1 and PPARγ2 mRNA for a given level of cyclophilin A. UCP1 and PPARγ2 mRNA levels normalized to cyclophilin A mRNA levels give an indication of the level of differentiation of the CD34+ cells into brown adipocytes, independent of the total number of cells in the sample.
# Quantification of UCP1, PPARγ2 and cyclophilin A mRNA by multiplexed TaqMan real-time PCR was thus used to quantify differentiation of the CD34+ cells into brown adipocytes.
# UCP1 is the key protein in brown adipocytes responsible for uncoupled respiration and is also highly specific for brown adipocyte differentiation. It is expressed exclusively by fully differentiated brown adipocytes and not by the CD34+ progenitor cells. We used a real-time semi-quantitative RT PCR-based assay for detection of UCP1 expression, in order to screen for brown adipocyte recruiters. […] The assay has the added advantage of allowing light microscopic visualization of the distinct morphological changes accompanying differentiation into brown adipocytes. This serves as further confirmation of differentiation.
# (§1) Cells were seeded at 10,000 per cm^2 (48-well tissue culture, Chemglass #CLS-3500-048), cultured until confluency (1-4 days) at 37° C. in Endothelial cell growth medium-2 (EGM2) (BulletKit growth medium, Lonza #CC-3162) and until differentiation (6-12 more days). After 1-4 days in EGM2 media the cells were incubated with test agents (or positive controls) for 2-3 days (from day −3 or −2 to day 0). Rosiglitazone (1 μM) and rhBMP7 (6.3 nM) were used as reference agents (positive controls). Then (on day 0) the culture media (containing the test agents or positive controls) was removed, and minimal adipogenic medium (MDM) was added and the cells were left to differentiate of 6-12 days. The MDM media is a modification of the adipogenic media described by Rodriguez et al., and contains: DMEM/Ham's F-12 50/50 Mix (3.151 g/1, 17.5 mM D-glucose, 3.651 g/l L-glutamine) (Cellgro #10-090-CV), 5 μg/ml (0.86 μM) insulin, 1 μM dexamethasone, 100 μM 3-isobutyl-1-methylxanthine, 0.2 nM 3,3′,5-triiodo-L-thyronine, 10 μg/ml (127 nM) transferrin, and 1% penicillin-streptomycin. Adipocyte scores were determined by light microscopy and defined as the number of cells, on a per well basis, that contain multilocular lipid droplets, at the end of the differentiation of the cells, approximately 6 to 12 days following the end of compound treatment and switch into MDM media.
# Total RNA was prepared from cells using PureLink RNA Isolation Kit (Invitrogen #12183-016). Alternatively, cells were simply lyzed by freezing (−80° C.). First strand cDNA were synthesized using the High Capacity cDNA Reverse Transcription kit (Applied Biosystems, Foster City, Calif.) and random primers.
# Quantitative real-time PCR was performed using an Applied Biosystems StepOnePlus™ instrument, TaqMan Gene Expression Master Mix (Applied Biosystems #4369016), and custom TaqMan gene expression probes and primers for human uncoupling protein-1 “UCP1” (GenBank NM_021833) and for human peptidylprolyl isomerase A “cyclophilin A” (GenBank NM_021130).
# Cyclophilin A was used as a control to account for any variations due to the efficiency of reverse transcription. Arbitrary units were determined by normalizing target mRNA levels to cyclophilin A mRNA levels (based on Cts).
# CD34+ cells [2] = assay: Quantification of UCP1 protein by fluorescence immunohistochemistry (IHC); type: cell-based, human
# Description: Culturing and differentiation of CD34+ cells into brown adipocytes were performed using adipogenic differentiation medium lacking (Minimal Differentiation Medium, MDM) or containing 1 μM rosiglitazone (Reference Differentiation Medium, RDM). After 15 days of differentiation cells were fixed with 4% Paraformaldehyde PBS pH 7.4, and incubated with a UCP1 antibody (Abcam ab23841) and Alexafluor 488 goat anti-rabbit antibody to quantify relative UCP1 levels (green) according to standard protocols. Prior to fixation of cells, nuclei were labeled with 5 μM DAPI (blue) for 10 minutes. Each treatment condition was evaluated in triplicate in a 96-well plate corresponding to approximately 360-480 cells for each data point in total. The InCell 1000 Developer Toolbox software was used to develop an automated cell detection script to measure UCP1 signal intensity, using the nuclei and cytoplasm detection algorithms. As a readout, total intensity of UCP1 signal within the cell was used, normalized to cell number.
# CD34+ cells [3] = assay: Light microscopy of CD34+ cells for brown adipocyte differentiation (multilocular lipid-containing cells); type: cell-based, human; conditions: CD34+ cells 6 days following the end of compound treatment and switch into MDM media
# Description: as §1
# Pictures of cells were taken using a hand-held digital camera (Nikon Coolpix 950) and inverted microscope (Nikon TMS) used for cell culture observations; images were optimized using Paint.net version 4.0 functions for Auto-Level Brightness and Contrast.
# DIO mice = assay: DIO mouse study of metabolic health, once-daily oral gavage for 28 to 56 days; type: in vivo, C57Bl/6 mice; conditions: oral gavage once a day, bezafibrate 60 mg/kg, oxaprozin 50 mg/kg, vs vehicle
# Description: Obesity and insulin resistance, an early stage in the development of type 2 diabetes (or pre-diabetes), was induced in C57Bl/6 mice by feeding the mice with a high fat diet (Research diet, Cat #D12492, 60/a fat kcal) for 12 weeks starting at 6 weeks of age. The mice were maintained at 22-23° C. with abundant bedding material, maintaining the animals in an environmental temperature close to their thermoneutrality, starting 2 weeks prior to the dosing period and for the full dosing period with a 12 h/12 h light/dark cycle.
# Mice were dosed once per day by oral gavage (200 μl per mouse), first for 3 days with the vehicle (PBS+0.5% CMC+0.1% Tween-80) as acclimation for running into the study, then with either vehicle alone or testing material dissolved in the vehicle for […] (4 to 8 weeks).
# Body weight was recorded every 3 days, body composition (fat and lean mass with EchoMRI) was assessed at the end of the study (University of Cincinnati Mouse Metabolic Phenotyping Center), blood glucose level (measured with a glucometer) was monitored 3-5 days before (baseline) and at the end of the dosing period.
# At the end of the dosing period, animals were fasted for 6 hours and euthanized by CO2, blood was collected, and plasma was isolated and saved at −20° C. Plasma glucose, insulin and leptin levels were assessed 3-5 days before (baseline) and at the end of the dosing period (mice were fasted for 6 hours before all plasma collection) (University of Cincinnati Mouse Metabolic Phenotyping Center). Insulin sensitivity was determined using the homeostasis model assessment of insulin resistance (HOMA-IR). HOMA-IR=(plasma insulin [microIU/ml] x plasma glucose [mM])/22.5.
# The mice were maintained on a high fat diet (60% calories from fat) throughout the study. An overnight fast was performed the last night of the study in preparation for glucose tolerance testing.
Compound,"differentiation of brown adipocyte progenitor cells into brown adipocytes, as indicated by expression of UCP1 and PPARγ2 [1]",agents identified by quantification of UCP1 protein by fluorescence IHC (CD34+ cells [2]),further results
COc1ccc2c(c1)c(CC(=O)OCC(=O)O)c(C)n2C(=O)c1ccc(Cl)cc1 [Acemethacin],promote the differentiation of brown adipocyte progenitor cells into brown adipocytes,–,–
COc1cc2c(c(OC)c1OC)-c1ccc(OC)c(=O)cc1[C@@H](NC(C)=O)CC2 [Colchicine],–,identified using this technique,–
O=C(O)Cc1ccccc1Nc1c(Cl)cccc1Cl [Diclofenac],promote the differentiation of brown adipocyte progenitor cells into brown adipocytes,–,–
NC(N)=Nc1nc(CSCCC(N)=NS(N)(=O)=O)cs1 [Famotidine],–,identified using this technique,–
CCC1=C(C)CN(C(=O)NCCc2ccc(S(=O)(=O)NC(=O)N[C@H]3CC[C@H](C)CC3)cc2)C1=O [Glimepiride],promote the differentiation of brown adipocyte progenitor cells into brown adipocytes,–,–
N=C(N)NC(=O)Cc1c(Cl)cccc1Cl [Guanfacine hydrochloride],–,identified using this technique,–
COc1ccc2c(c1)c(CC(=O)O)c(C)n2C(=O)c1ccc(Cl)cc1 [Indomethacin],promote the differentiation of brown adipocyte progenitor cells into brown adipocytes,–,–
Cc1ccc(Cl)c(Nc2ccccc2C(=O)O)c1Cl [Meclofenamate],promote the differentiation of brown adipocyte progenitor cells into brown adipocytes,–,–
Cc1cccc(Nc2ccccc2C(=O)O)c1C [Mefenamic acid],promote the differentiation of brown adipocyte progenitor cells into brown adipocytes,–,–
CN(C)C(=N)N=C(N)N [Metformin],–,identified using this technique,–
O=C(O)c1cccnc1Nc1cccc(C(F)(F)F)c1 [Niflumic acid],promote the differentiation of brown adipocyte progenitor cells into brown adipocytes,–,–
COC(=O)[C@H]1[C@H]2C[C@@H]3c4[nH]c5cc(OC)ccc5c4CCN3C[C@H]2C[C@@H](OC(=O)c2cc(OC)c(OC)c(OC)c2)[C@@H]1OC [Reserpine],–,identified using this technique,–
O=C(CCCN1CCC2(CC1)C(=O)NCN2c1ccccc1)c1ccc(F)cc1 [Spiperone],–,identified using this technique,–
CCOC(=O)Oc1c(OC)cc(C(=O)O[C@@H]2C[C@@H]3CN4CCc5c([nH]c6cc(OC)ccc56)[C@H]4C[C@@H]3[C@H](C(=O)OC)[C@H]2OC)cc1OC [Syrosingopine],–,identified using this technique,–
CCSc1ccc2c(c1)N(CCCN1CCN(C)CC1)c1ccccc1S2 [Thiethylperazine],–,identified using this technique,–
CCN(CC)CCNC(=O)c1cc(S(C)(=O)=O)ccc1OC [Tiapride hydrochloride],–,identified using this technique,–
"CCCCC[C@H](O)/C=C/[C@H]1[C@H](O)CC(=O)[C@@H]1CCCCCCC(=O)O [alprostadil, Alprostadil]",promote the differentiation of brown adipocyte progenitor cells into brown adipocytes,–,brown adipocyte formation by light microscopy (CD34+ cells [3]): promote brown adipocyte formation
"COc1ccc2c(c1)C(=O)N(CCc1ccc(S(=O)(=O)NC(=O)NC3CCCCC3)cc1)C(=O)C2(C)C [gliquidone, Gliquidone]",promote the differentiation of brown adipocyte progenitor cells into brown adipocytes,–,brown adipocyte formation by light microscopy (CD34+ cells [3]): promote brown adipocyte formation
"O=C(O)CCc1nc(-c2ccccc2)c(-c2ccccc2)o1 [oxaprozin, 3-(4,5-Diphenyloxazol-2-yl)propionic acid]",promote the differentiation of brown adipocyte progenitor cells into brown adipocytes,–,body fat mass (DIO mice; MRI): significant decreases; body weight (DIO mice): significant decreases; glycemia (DIO mice): significant decreases; plasma insulin (DIO mice): significant decreases; plasma leptin (DIO mice): significant decreases
"O=C(O)/C=C/c1ccc(Cn2ccnc2)cc1 [ozagrel, (2E)−3-{4-[(1H-imidazol-1-yl)methyl]phenyl}prop-2-enoic acid]",promote the differentiation of brown adipocyte progenitor cells into brown adipocytes,–,brown adipocyte formation by light microscopy (CD34+ cells [3]): promote brown adipocyte formation
"CN1c2ccccc2C(NCCCCCCC(=O)O)c2ccc(Cl)cc2S1(=O)=O (centres unmarked) [tianeptine, Tianeptine]",promote the differentiation of brown adipocyte progenitor cells into brown adipocytes,–,brown adipocyte formation by light microscopy (CD34+ cells [3]): promote brown adipocyte formation
"CC(C(=O)O)c1ccc2c(c1)CC(=O)c1ccccc1S2 (centres unmarked) [zaltoprofen, 2-(6-Oxo-5H-benzo[b][1]benzothiepin-3-yl)propanoic acid]",promote the differentiation of brown adipocyte progenitor cells into brown adipocytes,–,brown adipocyte formation by light microscopy (CD34+ cells [3]): promote brown adipocyte formation
